Measurements published in ChEMBL document CHEMBL2073960, “Cytotoxic and multidrug resistance reversal activity of a vegetable, 'Anastasia Red', a variety of sweet pepper” (Phytother Res, 2003).

Target: ATP-dependent translocase ABCB1 (Homo sapiens, UniProt P08183)
Experiment: TP_TRANSPORTER: increase in Rhodamine 123 intracellular accumulation in MDR1 transfected L-5178 mouse T-cell lymphoma cells
Type: functional, cell-based

ATP-dependent translocase ABCB1, sequence (P08183 whole entry): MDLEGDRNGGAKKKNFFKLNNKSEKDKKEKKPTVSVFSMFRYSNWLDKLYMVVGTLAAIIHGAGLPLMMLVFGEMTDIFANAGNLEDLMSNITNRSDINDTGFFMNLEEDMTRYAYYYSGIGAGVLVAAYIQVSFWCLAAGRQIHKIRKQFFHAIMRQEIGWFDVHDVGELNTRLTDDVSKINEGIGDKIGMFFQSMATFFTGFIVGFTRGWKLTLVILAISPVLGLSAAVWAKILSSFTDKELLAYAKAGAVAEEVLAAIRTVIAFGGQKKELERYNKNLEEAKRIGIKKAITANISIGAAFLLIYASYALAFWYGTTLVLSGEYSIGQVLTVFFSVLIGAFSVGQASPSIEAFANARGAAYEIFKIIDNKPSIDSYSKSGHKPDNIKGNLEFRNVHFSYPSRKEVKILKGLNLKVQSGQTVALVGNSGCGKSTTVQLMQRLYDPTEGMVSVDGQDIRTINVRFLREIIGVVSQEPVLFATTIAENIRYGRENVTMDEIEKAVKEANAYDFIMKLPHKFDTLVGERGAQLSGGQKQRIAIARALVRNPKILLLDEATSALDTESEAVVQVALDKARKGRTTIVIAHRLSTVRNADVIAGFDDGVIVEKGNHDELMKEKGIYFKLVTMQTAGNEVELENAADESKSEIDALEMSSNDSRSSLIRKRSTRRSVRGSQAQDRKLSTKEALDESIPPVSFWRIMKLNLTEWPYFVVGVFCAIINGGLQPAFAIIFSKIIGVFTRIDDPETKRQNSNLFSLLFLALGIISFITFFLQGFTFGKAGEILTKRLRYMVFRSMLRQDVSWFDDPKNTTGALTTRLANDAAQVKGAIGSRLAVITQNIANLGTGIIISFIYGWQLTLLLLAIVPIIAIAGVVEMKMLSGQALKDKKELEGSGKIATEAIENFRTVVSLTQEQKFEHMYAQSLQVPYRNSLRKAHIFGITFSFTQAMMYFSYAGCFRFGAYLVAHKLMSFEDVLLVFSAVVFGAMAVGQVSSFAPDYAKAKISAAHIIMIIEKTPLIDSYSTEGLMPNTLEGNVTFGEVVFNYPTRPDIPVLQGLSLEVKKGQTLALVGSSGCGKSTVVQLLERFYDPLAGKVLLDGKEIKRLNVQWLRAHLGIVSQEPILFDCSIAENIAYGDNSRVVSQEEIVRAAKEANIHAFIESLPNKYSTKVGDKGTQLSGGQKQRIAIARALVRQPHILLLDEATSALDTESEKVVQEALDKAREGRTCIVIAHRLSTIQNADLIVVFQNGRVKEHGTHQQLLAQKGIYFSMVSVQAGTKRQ

ANASTASIA RED EXTRACTS
Activity: inhibitor [+]
